The source made the active and inactive calls. The rule behind the calls is not given here.
Tests used:
[1] = Metabolic stability in macaque liver microsomes assessed as compound remaining at 10 umol/L incubated upto 120 mins in presence of NADPH by LC-MS/MS analysis; type: ADME, Microsome; settings: macaca, dose 10 µmol/L, read-out: Stability
[2] = Acute toxicity in Sprague-Dawley rat with single oral administration measured for 14 days; settings: in vivo, time 14 day
[3] = Metabolic stability in rat liver microsomes assessed as compound remaining at 10 umol/L incubated upto 120 mins in presence of NADPH by LC-MS/MS analysis; type: ADME, Microsome; settings: dose 10 µmol/L, read-out: Stability
[4] = Metabolic stability in human plasma assessed as enzymatic hydrolysis at 50 to 10000 ng/ml incubated upto 120 mins; type: ADME, cell-free; settings: 2 h, dose 50-10000 ng/ml
[5] = Acute toxicity in Sprague-Dawley rat assessed as discernible drug-related alterations at 250 to 1000 mg/kg, po single administration measured for 14 days; type: organism-based; settings: in vivo, 336 h, dose 250-1000 mg/kg, time 14 day
Rattus norvegicus [6] = test: Effect on postural hypotension in Sprague-Dawley rat assessed as change in systolic blood pressure at 2.5 mg/kg, po treated for >30 mins followed by induction of postural hypotension measured 40 secs after postural change (reference value: 128 +/- 11 mmHg); type: functional; settings: time > 30.67 min, 0.5112 h
Rattus norvegicus [7] = test: Effect on serum urea level in 2K2C renovascular hypertensive Sprague-Dawley rat model at 10 mg/kg, po measured after 9 weeks by biochemical analysis; type: functional, organism-based
[8] = Apparent oral clearance in Sprague-Dawley rat at 9 mg/kg, po measured for 24 hrs by UPLC/MS/MS analysis; type: ADME, organism-based; settings: in vivo
[9] = Tmax in female Sprague-Dawley rat at 30 mg/kg, po qd treated for 13 weeks consecutively measured after recovery period on day 91 by UP/LC/MS/MS analysis; type: ADME, organism-based; settings: in vivo, time 91 day
[10] = AUC (0 to t) in male Sprague-Dawley rat at 100 mg/kg, po measured on day 1 by UP/LC/MS/MS analysis; type: ADME, organism-based; settings: in vivo, time 1 day
[11] = Cmax in Sprague-Dawley rat at 9 mg/kg, po measured for 24 hrs by UPLC/MS/MS analysis; type: ADME, organism-based; settings: in vivo
[12] = Cmax in Sprague-Dawley rat at 1 mg/kg, iv measured for 24 hrs by UPLC/MS/MS analysis; type: ADME, organism-based; settings: in vivo
[13] = Plasma protein binding in human at 10 uM incubated for 30 mins; type: ADME, cell-free; settings: read-out: PPB (converted)
[14] = AUC (0 to t) in female Sprague-Dawley rat at 10 mg/kg, po measured on day 1 by UP/LC/MS/MS analysis; type: ADME, organism-based; settings: in vivo, time 1 day
[15] = AUC (0 to t) in male Sprague-Dawley rat at 10 mg/kg, po qd treated for 13 weeks consecutively measured after recovery period on day 91 by UP/LC/MS/MS analysis; type: ADME, organism-based; settings: in vivo, time 91 day
[16] = Plasma protein binding in Cynomolgus monkey at 10 uM incubated for 30 mins; type: ADME, cell-free, Macaca fascicularis; settings: read-out: PPB (converted)
Rattus norvegicus [17] = test: Effect on postural hypotension in Sprague-Dawley rat assessed as change in systolic blood pressure at 10 mg/kg, po treated for >30 mins followed by induction of postural hypotension measured immediately after postural change (reference value: 131 +/- 9 mmHg); type: functional; settings: 0.5 h
[18] = Toxicity in male Sprague-Dawley rat assessed as reduction in body weight at 100 mg/kg, po qd treated for 4 days consecutively; type: organism-based; design: scale not given: the % may be the effect or the level left; settings: in vivo, 96 h, time 4 day
Rattus norvegicus [19] = test: Effect on postural hypotension in Sprague-Dawley rat assessed as change in systolic blood pressure at 2.5 mg/kg, po treated for >30 mins followed by induction of postural hypotension measured 5 secs after postural change (reference value: 126 +/- 12 mmHg); type: functional; settings: time > 30.08 min, 0.5013 h
[20] = Cmax in female Sprague-Dawley rat at 100 mg/kg, po measured on day 1 by UP/LC/MS/MS analysis; type: ADME, organism-based; settings: in vivo, time 1 day
[21] = Tmax in female Sprague-Dawley rat at 30 mg/kg, po measured on day 1 by UP/LC/MS/MS analysis; type: ADME, organism-based; settings: in vivo, time 1 day
[22] = Tmax in Sprague-Dawley rat at 1 mg/kg, po measured for 24 hrs by UPLC/MS/MS analysis; type: ADME, organism-based; settings: in vivo
[23] = Plasma protein binding in Beagle dog at 0.1 uM incubated for 30 mins; type: ADME, cell-free, Canis lupus familiaris; settings: read-out: PPB (converted)
[24] = Tmax in Sprague-Dawley rat at 3 mg/kg, po measured for 24 hrs by UPLC/MS/MS analysis; type: ADME, organism-based; settings: in vivo
[25] = Cmax in Sprague-Dawley rat at 1 mg/kg, po measured for 24 hrs by UPLC/MS/MS analysis; type: ADME, organism-based; settings: in vivo
[26] = Tmax in female Sprague-Dawley rat at 100 mg/kg, po measured on day 1 by UP/LC/MS/MS analysis; type: ADME, organism-based; settings: in vivo, time 1 day
[27] = Apparent volume of distribution during terminal phase in Sprague-Dawley rat at 9 mg/kg, po measured for 24 hrs by UPLC/MS/MS analysis; type: ADME, organism-based; settings: in vivo, read-out: Vz/F
[28] = AUC (0 to t) in female Sprague-Dawley rat at 100 mg/kg, po qd treated for 13 weeks consecutively measured after recovery period on day 91 by UP/LC/MS/MS analysis; type: ADME, organism-based; settings: in vivo, time 91 day
[29] = Apparent oral clearance in Sprague-Dawley rat at 1 mg/kg, iv measured for 24 hrs by UPLC/MS/MS analysis; type: ADME, organism-based; settings: in vivo
[30] = Plasma protein binding in human at 1 uM incubated for 30 mins; type: ADME, cell-free; settings: read-out: PPB (converted)
[31] = Toxicity in Sprague-Dawley rat assessed as change in body weight at 100 mg/kg, po qd treated for 13 weeks consecutively measured post-cessation of treatment; type: organism-based; settings: in vivo, 2184 h
[32] = Apparent volume of distribution during terminal phase in Sprague-Dawley rat at 1 mg/kg, po measured for 24 hrs by UPLC/MS/MS analysis; type: ADME, organism-based; settings: in vivo, read-out: Vz/F
[33] = Cmax in male Sprague-Dawley rat at 100 mg/kg, po measured on day 1 by UP/LC/MS/MS analysis; type: ADME, organism-based; settings: in vivo, time 1 day
Rattus norvegicus [34] = test: Effect on postural hypotension in Sprague-Dawley rat assessed as change in systolic blood pressure at 5 mg/kg, po treated for >30 mins followed by induction of postural hypotension measured 20 secs after postural change (reference value: 129 +/- 11 mmHg); type: functional; settings: time > 30.33 min, 0.5055 h
[35] = Tmax in Sprague-Dawley rat at 1 mg/kg, iv measured for 24 hrs by UPLC/MS/MS analysis; type: ADME, organism-based; settings: in vivo
Rattus norvegicus [36] = test: Effect on postural hypotension in Sprague-Dawley rat assessed as change in systolic blood pressure at 2.5 mg/kg, po treated for >30 mins followed by induction of postural hypotension measured 3 secs after postural change (reference value: 124 +/- 10 mmHg); type: functional; settings: time > 30.05 min, 0.5008 h
[37] = AUC (0 to t) in male Sprague-Dawley rat at 10 mg/kg, po measured on day 1 by UP/LC/MS/MS analysis; type: ADME, organism-based; settings: in vivo, time 1 day
[38] = Metabolic stability in Beagle dog plasma assessed as enzymatic hydrolysis at 50 to 10000 ng/ml incubated upto 120 mins; type: ADME, cell-free, Canis lupus familiaris; settings: 2 h, dose 50-10000 ng/ml

Cl.c1ccc2c(c1)nnn2CCCCN1CCN(c2nsc3ccccc23)CC1
remaining at 2 h, 10 µM [1]: 1.5%
MTD at 336 h [2]: > 1000 mg/kg
remaining at 2 h, 10 µM [3]: 21.1%
Stability [4]: Stable
Activity [5]: Non-Toxic
Activity (Rattus norvegicus [6]): 92 mmHg
Activity (Rattus norvegicus [7]): Active
CL/F [8]: 587 mL/min
Tmax [9]: 1 h
AUC(0-t) at 24 h [10]: 1460 ng·h/mL
Cmax [11]: 186 ng/mL
Cmax [12]: 468 ng/mL
fraction unbound at 0.5 h, 10 µM [13]: 0.004
AUC(0-t) at 24 h [14]: 344 ng·h/mL
AUC(0-t) at 2184 h [15]: 112 ng·h/mL
fraction unbound at 0.5 h, 10 µM [16]: 0.005
Activity (Rattus norvegicus [17]): 89 mmHg
Activity [18]: ~ 5.4%
Activity (Rattus norvegicus [19]): 89 mmHg
Cmax [20]: 1080 ng/mL
Tmax [21]: 1 h
Tmax [22]: 9.6 min
fraction unbound at 0.5 h, 0.1 µM [23]: 0.012
Tmax [24]: 2 h
Cmax [25]: 33.3 ng/mL
Tmax [26]: 2 h
Vd/F [27]: 78.9 L
AUC(0-t) at 2184 h [28]: 7450 ng·h/mL
CL/F [29]: 25 L/h
fraction unbound at 0.5 h, 1 µM [30]: 0.004
Activity [31]: Non-Toxic
Vd/F [32]: 51.5 L
Cmax [33]: 347 ng/mL
Activity (Rattus norvegicus [34]): 83 mmHg
Tmax [35]: 0.25 h
Activity (Rattus norvegicus [36]): 90 mmHg
AUC(0-t) at 24 h [37]: 44.5 ng·h/mL
Stability [38]: Stable

Reference: ChEMBL document CHEMBL5614376, “Discovery of MT-1207: A Novel, Potent Multitarget Inhibitor as a Promising Clinical Candidate for the Treatment of Hypertension” (J Med Chem, 2024)
